# Test results taken from patent US11136311B2, “Heteroaromatic derivatives as NIK inhibitors” (Janssen Pharmaceutica NV, priority 2016, dated 2021).
# Read-outs that look alike come from different tables or passages of the source.
# Columns and labels:
# [1] = biological target: recombinant human NF-kappaB-inducing kinase (NIK/MAP3K14) (Homo sapiens (Human), UniProt Q99558); experiment: Inhibition of auto-phosphorylation of recombinant human NIK/MAP3K14 activity (AlphaScreen); assay type: biochemical; settings: averaged values over all measurements on all batches
# Sequence of recombinant human NF-kappaB-inducing kinase (NIK/MAP3K14) (Q99558 whole entry): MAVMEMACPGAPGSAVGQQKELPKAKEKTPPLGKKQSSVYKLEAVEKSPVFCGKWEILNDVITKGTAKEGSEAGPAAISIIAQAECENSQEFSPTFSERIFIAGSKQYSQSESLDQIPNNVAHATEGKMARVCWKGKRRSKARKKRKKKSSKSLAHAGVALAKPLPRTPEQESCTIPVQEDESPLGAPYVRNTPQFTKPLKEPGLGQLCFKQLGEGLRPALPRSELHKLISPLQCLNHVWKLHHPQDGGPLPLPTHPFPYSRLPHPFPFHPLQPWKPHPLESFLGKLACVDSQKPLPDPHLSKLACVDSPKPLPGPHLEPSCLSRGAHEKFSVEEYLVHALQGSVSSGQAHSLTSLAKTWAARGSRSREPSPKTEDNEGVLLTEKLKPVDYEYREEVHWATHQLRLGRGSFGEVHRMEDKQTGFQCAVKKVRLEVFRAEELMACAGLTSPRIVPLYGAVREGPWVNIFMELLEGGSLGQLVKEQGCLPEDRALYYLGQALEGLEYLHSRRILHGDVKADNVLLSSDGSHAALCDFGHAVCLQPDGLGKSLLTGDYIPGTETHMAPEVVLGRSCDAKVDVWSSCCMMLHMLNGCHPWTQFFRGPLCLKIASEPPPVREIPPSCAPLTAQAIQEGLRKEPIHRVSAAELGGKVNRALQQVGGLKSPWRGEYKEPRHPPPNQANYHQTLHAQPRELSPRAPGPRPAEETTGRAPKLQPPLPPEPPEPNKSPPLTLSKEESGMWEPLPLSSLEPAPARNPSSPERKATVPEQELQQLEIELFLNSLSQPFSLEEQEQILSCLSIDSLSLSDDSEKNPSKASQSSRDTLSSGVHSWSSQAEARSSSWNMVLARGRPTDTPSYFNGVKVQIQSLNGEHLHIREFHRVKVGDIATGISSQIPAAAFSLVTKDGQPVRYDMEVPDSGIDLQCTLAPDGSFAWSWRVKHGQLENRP
# Procedure, shortened: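 AlphaScreen read-out, using anti-phospho-IKK Ser176/180 antibody, tracked NIK autophosphorylation after 1 h at 25° C. Reactions held 0.2 nM GST-NIK, 25 microM ATP and compound in 1% DMSO, Tris pH 7.5 buffer. IC50 fitted sigmoidally to blank-subtracted inhibition data.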
# [2] = test system: JJN-3 cells; experiment: Antiproliferative activity on JJN-3 (NIK translocated) multiple myeloma cells (CellTiter-Glo); assay type: cell-based, human; settings: JJN-3 (NIK translocated) cells, 96 hr, averaged values, read-out: JJN-3 Proliferation inhibition (IC50 (nM))
# Procedure, shortened: (§1)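 Viability was read by CellTiter-Glo after 96 hr compound exposure (9-point, 1:3 serial dilutions; 0.3% DMSO final). JJN-3 and KMS12-BM cells were seeded at 15000 and 20000 per well respectively in RPMI 1640/10% FCS; blank-subtracted signals were given as percent of drug-free controls.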
# [3] = test system: KMS12-BM cells; experiment: Antiproliferative activity on KMS12-BM (NIK WT) multiple myeloma cells (CellTiter-Glo); assay type: cell-based, human; settings: KMS12-BM (NIK WT) cells, 96 hr, averaged values, read-out: KMS-12 Proliferation inhibition (IC50 (nM))
# Procedure, shortened: as §1
# [4] = test system: P-IKKα levels in L363 cells; experiment: Effect of compounds on P-IKKα levels in L363 (NIK translocated multiple myeloma) cells; assay type: cell-based, human; settings: averaged values, read-out: Inhibition of pIKKα_L-363 (IC50 (nM))
# Procedure, shortened: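 L363 myeloma cells were primed 24 h with BAFF, then treated 2 h with compound (8-point, 1:3 dilutions, 1% DMSO) at 37°C. P-IKKα in lysates was measured by Mesoscale sandwich immunoassay, with the full-inhibition blank subtracted. IC50 came from a sigmoidal fit of % inhibition of control against log concentration.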
# [5] = Homo sapiens, L-363, L363 cells
SMILES,IC50 [1] [nM],"IC50 ([2]; Homo sapiens, JJN-3, 96 h) [nM]","IC50 ([3]; Homo sapiens, KMS-12-BM, 96 h) [nM]","IC50 [4, 5] [nM]",IC50 [2] [nM],IC50 [3] [nM],IC50 ([4]; L363 cells) [nM]
CN1CCN(Cc2nn(C)cc2Nc2nccc(-c3cc(C#N)c4c(c3)[C@@](C)(CO)CN4)n2)CC1 [Compound 166],13,37,> 10000,151,–,–,–
CN1CCN(Cc2c(Nc3nccc(-c4cc(C#N)c5c(c4)[C@@](C)(CO)CN5)n3)cnn2CCC2CC2)CC1 [Compound 167],13,83,> 10000,62,–,–,–
COCCCn1nc(C)cc1Nc1nccc(-c2cc(C#N)c3c(c2)[C@@](C)(COC(C)=O)CN3)n1 [Compound 177],10,81,> 10000,28,–,–,–
CC(=O)OC[C@@]1(C)CNc2c(C#N)cc(-c3ccnc(Nc4cc(C)nn4CC4CCN(C)CC4)n3)cc21 [Compound 178],20,–,–,–,98,2340,141
CNC(=O)c1cc(Nc2nccc(-c3cc(C#N)c4c(c3)[C@@](C)(CO)CN4)n2)n(C(C)C)n1 [Compound 183],22,1410,~9770,35,–,–,–
CN1CCN(Cc2nn(CC(F)F)cc2Nc2nccc(-c3cc(C#N)c4c(c3)[C@@](C)(CO)CN4)n2)CC1 [Compound 185],6,91,> 10000,20,–,–,–
Cc1cc(Nc2nccc(-c3cc(C#N)c4c(c3)[C@@](C)(CO)CN4)n2)n(CC(F)F)n1 [Compound 186],6.5,151,617,3,–,–,–
Cn1ncc(Nc2nccc(-c3cc(C#N)c4c(c3)[C@@](C)(CO)CN4)n2)c1OC1CC1 [Compound 192],8.1,91,> 10000,6,–,–,–

# Further compounds by falling IC50 [1], results first:
IC50 [1] [nM],"IC50 ([2]; Homo sapiens, JJN-3, 96 h) [nM]","IC50 ([3]; Homo sapiens, KMS-12-BM, 96 h) [nM]","IC50 [4, 5] [nM]",IC50 [2] [nM],IC50 [3] [nM],IC50 ([4]; L363 cells) [nM],SMILES
32,65,~3310,76,–,–,–,Cn1ccc(Nc2nccc(-c3cc(C#N)c4c(c3)[C@@](C)(CN3CCN(C5CC5)CC3)CN4)n2)n1 [Compound 176]
7.2,~1380,> 10000,11,–,–,–,CNC(=O)c1nn(CC(F)F)cc1Nc1nccc(-c2cc(C#N)c3c(c2)[C@@](C)(CO)CN3)n1 [Compound 187]
5.4,224,> 10000,17,–,–,–,CN1CCN(C(=O)c2nn(CC(F)F)cc2Nc2nccc(-c3cc(C#N)c4c(c3)[C@@](C)(CO)CN4)n2)CC1 [Compound 184]
4.7,46,~6720,2,–,–,–,COCCc1nn(CC(F)F)cc1Nc1nccc(-c2cc(C#N)c3c(c2)[C@@](C)(CO)CN3)n1 [Compound 180]
3.9,389,~7080,16,–,–,–,CC(C)CCc1c(Nc2nccc(-c3cc(C#N)c4c(c3)[C@@](C)(CO)CN4)n2)cnn1CC1CCN(CC(F)F)CC1 [Compound 169]
3.3,87,~9120,11,–,–,–,COCCc1c(Nc2nccc(-c3cc(C#N)c4c(c3)[C@@](C)(CO)CN4)n2)cnn1CC(F)F [Compound 181]
3.1,407,> 10000,29,–,–,–,CC(C)Oc1c(Nc2nccc(-c3cc(C#N)c4c(c3)[C@@](C)(CO)CN4)n2)cnn1C [Compound 194]
2.9,138,~8130,4,–,–,–,CC(C)Oc1nn(CC(F)F)cc1Nc1nccc(-c2cc(C#N)c3c(c2)[C@@](C)(CO)CN3)n1 [Compound 188]
2.2,417,~1780,7,–,–,–,Cc1c(Nc2nccc(-c3cc(C#N)c4c(c3)[C@@](C)(CO)CN4)n2)cnn1CCN1CCOCC1 [Compound 170]
1.7,151,1380,1,–,–,–,Cc1cc(Nc2nccc(-c3cc(C#N)c4c(c3)[C@@](C)(CO)CN4)n2)nn1CCN1CCOCC1 [Compound 182]
